Key:
[1] = test system: pro-inflammatory cytokine IFN-γ secretion by mouse T cells stimulated by CD3/CD28 monoclonal antibodies; assay: Inhibition of IFN-γ secretion by mouse T cells stimulated by CD3/CD28 monoclonal antibodies (ELISA); assay type: cell-based; conditions: T-cell, 48 h, C57BL/6 mouse T cells, CD3/CD28 mAb stimulation; for inhibition at 20 µM: read-out: Inhibitory rate (%, 20 μM)
Description: CD3, CD28 monoclonal antibodies, and kit for IFN-γ detection were purchased from BD Bioscience, Cell Counting Kit-8 (CCK-8) was purchased from MeilunBio®, and RPMI-1640 medium and fetal bovine serum were purchased from Biological Industries.
Preparation of samples to be tested: the 12 compounds of Example 1 were dissolved in DMSO, respectively to prepare 20 mM stock solutions.
Splenocytes were aseptically isolated from 6-8 week old female C57BL/6 mice, and T cells were isolated using a nylon wool column method. The T cells were then inoculated (4×10^5 cells/well) in a 96-well plate (which was coated with 5 μg/mL of CD3 monoclonal antibody). At the same time, a prepared compound solution of 40 μM, 20 μM, 10 μM, 5 μM, 2.5 μM, or 1.25 μM along with a 2 μg/mL solution of CD28 monoclonal antibody were added into each group, respectively, which were cultured in a 37° C./5% CO2 incubator. After 48 h, the supernatant of the cells was collected and the IFN-γ secretion in the supernatant was detected by an Enzyme-Linked Immuno-Sorbent Assay (ELISA); 10 μL of CCK-8 solution was added into each well, and OD450 was measured after incubation at 37° C. for 4 h to evaluate cell proliferation. […] The inhibitory activity of the compounds on IFN-γ was calculated, and the half-maximal inhibitory concentration (IC50) was analyzed using GraphPadPrism software.

[2] = test system: imiquimod-induced psoriasis mice; assay: In vivo anti-psoriasis activity test on sesterterpenoid compound 6 (imiquimod-induced psoriasis mouse model); conditions: 25 and 50 mg/kg intraperitoneal injection, day 1 to 6
Description: Establishment and pharmacodynamic study of a mouse model of imiquimod-induced psoriasis: the mice were randomly divided into a control group, a model group, a methotrexate (MTX) treatment (1 mg/kg) group, and Leucosceptrum canum sesterterpenoid treatment (50 mg/kg, 150 mg/kg, 450 mg/kg) groups, with 6 mice in each group. The mice were depilated on their backs before the experiment, and 62.5 mg of […] imiquimod cream was evenly applied on the backs of mice while an equivalent amount of Vaseline was applied on the backs of mice in the normal control group from the 1st day, the application was performed once a day for 6 d. From the 1st day 1 to the 6th day, each treatment group was given the drug by gavage. During the experiment, the mice were weighed and scored for the Psoriasis Area and Severity Index (PASI) according to the following criteria: 0 points, normal skin without erythema and scales; 1 point, mild erythema, a few fine scales, and the skin at the lesion being slightly higher than normal skin; 2 points, moderate red plaques, the surface of the lesions being covered with scales, and the lesions being flaky or moderately raised; 3 points, severe dark red plaques, almost all the lesions being covered with thick scales or obvious lesions; 4 points, extremely severe and dark red plaques, all lesions being covered with highly thick layered scales, and the thickening and protrusion of the lesions being extremely obvious. After the experiment, the back skin of the mice was taken to make pathological sections. The levels of pro-inflammatory cytokines IFN-γ and IL-17A in mouse serum were detected by ELISA.
A method for establishing the imiquimod-induced psoriasis mouse model was the same as that in Example 4. The mice were randomly divided into a control group, a model group, a methotrexate (MTX) treatment group (1 mg/kg), and compound 6 treatment groups (25 and 50 mg/kg), with 6 mice in each group. From the 1st day to the 6th day, drugs were given to each treatment group by intraperitoneal injection. During the experiment, the mice were weighed and scored for PASI. After the experiment, the back skin of the mice was taken to make pathological sections. The levels of pro-inflammatory cytokines IFN-γ and IL-17A in mouse serum were detected by ELISA.

## CC(C)=C[C@]1(O)C(=O)[C@@H](C)[C@@H]2CC[C@H](C)[C@H]2[C@]1(O)C(=O)[C@H](C)CC[C@@H]1OC(=O)C=C1C [Compound 1]
[1]
  inhibition at 20 µM: 32.1 ± 5.46%

## CC(C)=C[C@]1(O)C(=O)[C@@H](C)[C@@H]2CC[C@H](C)[C@H]2[C@@]1(O)C(=O)[C@H](C)CC[C@@H]1OC(=O)C=C1C [Compound 2]
[1]
  inhibition at 20 µM: 51.3 ± 7.1%

## CC(C)=C[C@]1(O)C(=O)[C@@H](C)[C@@H]2CC[C@H](C)[C@H]2[C@@]1(O)C(=O)[C@H](C)CCc1occc1C [Compound 3]
[1]
  inhibition at 20 µM: 30.5 ± 6.55%

## CC[C@@H](C)C(=O)[C@@]1(O)[C@H]2[C@@H](CC[C@@H]2C)[C@H](C)[C@]2(O)OCC(C)=C[C@@]21O [Compound 4]
[1]
  inhibition at 20 µM: 26.7 ± 5.85%

## CC1=C[C@@]2(O)[C@@](O)(OC1)[C@@H](C)[C@@H]1CC[C@H](C)[C@H]1[C@]2(O)C(=O)[C@H](C)CCO [Compound 5]
[1]
  inhibition at 20 µM: 10.7 ± 2.74%

## CC1=C[C@@]2(O)[C@@](O)(OC1)[C@@H](C)[C@@H]1CC[C@H](C)[C@H]1[C@]2(O)C(=O)[C@H](C)CCc1occc1C [Compound 6]
[2]
  level of IFN-γ in the serum of psoriasis mice (FIG. 10A-10B, ELISA): significantly reduces
  level of IL-17A in the serum of psoriasis mice (FIG. 10A-10B, ELISA): significantly reduces
  pathological damage of the skin tissue of psoriasis mice (FIG. 9, HE staining): significantly inhibits
  symptoms of psoriasis in mice (FIG. 8): significantly improves
[1]
  inhibition at 20 µM: 66.8 ± 3.02%
  IC50: 5.74 µM

## CC1=C[C@@]2(O)[C@@](O)(OC1)[C@@H](C)[C@@H]1CC[C@H](C)[C@H]1[C@]2(O)C(=O)[C@H](C)CC(=O)c1occc1C [Compound 7]
[1]
  inhibition at 20 µM: 36.2 ± 8.27%

## CC1=C[C@@]2(O)[C@@](O)(OC1)[C@@H](C)[C@@H]1CC[C@H](C)[C@H]1[C@]2(O)C(=O)[C@H](C)CCC1=C(C)CC(=O)O1 [Compound 8]
[1]
  inhibition at 20 µM: 43.1 ± 7.35%

## COC1(CC[C@@H](C)C(=O)[C@@]2(O)[C@H]3[C@@H](CC[C@@H]3C)[C@H](C)[C@]3(O)OCC(C)=C[C@@]32O)OC(=O)C=C1C (some centres unmarked) [Compound 9]
[1]
  inhibition at 20 µM: 39.6 ± 7.93%

## COC1C=C(C)C(CC[C@@H](C)C(=O)[C@@]2(O)[C@H]3[C@@H](CC[C@@H]3C)[C@H](C)[C@]3(O)OCC(C)=C[C@@]32O)(OC)O1 (some centres unmarked) [Compound 10]
[1]
  inhibition at 20 µM: 10.4 ± 3.02%

## CC1=C[C@@]2(O)[C@@](O)(OC1)[C@@H](C)[C@@H]1CC[C@H](C)[C@H]1[C@@]2(O)C(=O)[C@H](C)C[C@H]1C(=O)C(C)=C[C@@H]1O [Compound 11]
[1]
  inhibition at 20 µM: 23.4 ± 1.24%

## CC1=C[C@@]2(O)[C@@](O)(OC1)[C@@H](C)[C@@H]1CC[C@H](C)[C@H]1[C@@]2(O)C(=O)[C@@H](C)C[C@H]1C(=O)C(C)=C[C@@H]1O [Compound 12]
[1]
  inhibition at 20 µM: 33.8 ± 2.27%
